In patent US5391540A, “Substituted pyridine compounds” (Rohm and Haas Company, priority 1993, dated 1995):

Experiments:
Type in all cases: in vivo
[1] = tested on: Dobr; assay: plant injury after spraying emerged plants (Table D)
Description: Topsoil (silt loam) is sieved through a screen having 1.27 cm openings. In some of the tests the soil was mixed with fertilizer (1225 g/cu. m of 12/5/9 containing isobutylidene diurea), while in other tests the fertilizer was omitted. This mixture is steam sterilized and then placed in aluminum pans 6.985 cm deep having ten holes in the bottom each 0.635 cm in diameter. The soil mixture is compacted to a depth of 1.27 cm. from the top of the pan. A predetermined number of seeds of each of several dicotyledonous and monocotyledonous annual plant species and/or vegetative propagules for the perennial plant species are placed on the soil and pressed into the soil surface. The seeds and/or vegetative propagules are covered with 1.27 cm of a mixture of 50% topsoil and 50% of a mixture of Canadian sphagnum peat moss, vermiculite and a wetting agent. The pans are then placed on a capillary mat on a greenhouse bench and subirrigated as needed. After the plants reach the desired stage (9 to 14 days, 1 to 3 true leaf stage), each pan (except the control pans) is removed to a spraying chamber and sprayed by means of an atomizer, operating at a spray pressure of 170.3 kPa ([…]) at the application rates noted in Table D. In the spray solution is an amount of an emulsifying agent mixture (35% butylamine salt of dodecylbenzenesulfonic acid and 65% tall oil condensed with ethylene oxide in the ratio of 11 mols of ethylene oxide/mol of tall oil) to give a spray solution or suspension. The spray solution or suspension contains a sufficient amount of the candidate chemical in order to give application rates of the active ingredient corresponding to those shown in Table D below while applying a total amount of solution or suspension equivalent to 1870 L/Ha (200 gallons/acre). The pans are returned to the greenhouse and watered as before and the injury to the plants as compared to the control pans is observed at approximately 10-14 days (usually 11 days).
(§1) In the following Table D the legends used to identify the plant species are the same as those used in the preceding Table B.

[2] = tested on: Cobu; assay: as above; parameters: scale not given here
Description: (§2) Topsoil (silt loam) is sieved through a screen having 1.27 cm openings. […] This mixture is steam sterilized and then placed in aluminum pans 6.985 cm deep having ten holes in the bottom each 0.635 cm in diameter. The soil mixture is compacted to a depth of 1.27 cm. from the top of the pan. A predetermined number of seeds of each of several dicotyledonous and monocotyledonous annual plant species and/or vegetative propagules for the perennial plant species are placed on the soil and pressed into the soil surface. The seeds and/or vegetative propagules are covered with 1.27 cm of a mixture of 50% topsoil and 50% of a mixture of Canadian sphagnum peat moss, vermiculite and a wetting agent. The pans are then placed on a capillary mat on a greenhouse bench and subirrigated as needed.
as §1

[3] = tested on: Grft; assay: as above; parameters: scale not given here
Description: as §2, §1

[4] = tested on: Lacg; assay: as above; parameters: scale not given here
Description: as §2, §1

[5] = tested on: Bygr; assay: as above; parameters: scale not given here
Description: as §2, §1

[6] = tested on: Corn; assay: as above; parameters: scale not given here
Description: as §2, §1

[7] = tested on: Grso; assay: as above; parameters: scale not given here
Description: as §2, §1

[8] = tested on: Whez; assay: as above; parameters: scale not given here
Description: as §2, §1

[9] = tested on: Rice; assay: as above; parameters: scale not given here
Description: as §2, §1

[10] = tested on: Sobe; assay: as above; parameters: scale not given here
Description: as §2, §1

[11] = tested on: Yellow Nutsedge; assay: Pre-emergent herbicidal activity (Table A); settings: Cyperus, pre-emergence, Yens, 11.2 kg/ha, 10-14 days, read-out: herbicidal rating (% inhibition)
Outline: (§3)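 Seeds or perennial propagules set on compacted topsoil, then covered with soil mixed with a known amount of test compound applied in acetone or water carrier. Ratings assigned on a scale based on percent inhibition of each species.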

[12] = tested on: Morningglory; assay: Pre-emergent herbicidal activity (Table A); settings: Ipomoea, pre-emergence, Mogl, 11.2 kg/ha, 10-14 days, read-out: herbicidal rating (% inhibition)
Outline: as §3

[13] = tested on: Cocklebur; assay: Pre-emergent herbicidal activity (Table A); settings: Xanthium strumarium, pre-emergence, Cobu, 11.2 kg/ha, 10-14 days, read-out: herbicidal rating (% inhibition)
Outline: as §3

[14] = tested on: Downy Brome; assay: Pre-emergent herbicidal activity (Table A); settings: Bromus tectorum, pre-emergence, Dobr, 11.2 kg/ha, 10-14 days, read-out: herbicidal rating (% inhibition)
Outline: as §3

[15] = tested on: Barnyardgrass; assay: Pre-emergent herbicidal activity (Table A); settings: Echinochloa crus-galli, pre-emergence, Bygr, 11.2 kg/ha, 10-14 days, read-out: herbicidal rating (% inhibition)
Outline: as §3

[16] = tested on: Velvetleaf; assay: Pre-emergent herbicidal activity (Table A); settings: Abutilon theophrasti, pre-emergence, Vele, 11.2 kg/ha, 10-14 days, read-out: herbicidal rating (% inhibition)
Outline: as §3

In the case of `COC(=O)c1c(OC)nc(C(F)(F)F)c(C(=O)n2cccn2)c1CC1CC1` [Compound 116, 3-pyridinecarboxylic acid, 4-(cyclopropylmethyl)-2-methoxy-5-(1H-pyrazo1-1-ylcarbonyl)-6-(trifluoromethyl)-, methyl ester], the “plant injury rating, Dobr” value ([1]; 0.0701 kg/ha) is reported as 0, the “plant injury rating, Dobr” value ([1]; 0.2803 kg/ha) is reported as 0 and the “plant injury rating, Dobr” value ([1]; 1.1210 kg/ha) is reported as 0. For the same compound, the “plant injury rating, Dobr” value ([1]; 5.6050 kg/ha) was 0, the “plant injury rating, Cobu” value ([2]; 0.0701 kg/ha) was 0 and the “plant injury rating, Cobu” value ([2]; 0.2803 kg/ha) was 1. The “plant injury rating, Cobu” value ([2]; 1.1210 kg/ha) was 2, the “plant injury rating, Cobu” value ([2]; 5.6050 kg/ha) was 2 and the “plant injury rating, Grft” value ([3]; 0.0701 kg/ha) was 0. For the same compound, the “plant injury rating, Grft” value ([3]; 0.2803 kg/ha) was 0, the “plant injury rating, Grft” value ([3]; 1.1210 kg/ha) was 0 and the “plant injury rating, Grft” value ([3]; 5.6050 kg/ha) was 1. The “plant injury rating, Lacg” value ([4]; 0.0701 kg/ha) was 2, the “plant injury rating, Lacg” value ([4]; 0.2803 kg/ha) was 2 and the “plant injury rating, Lacg” value ([4]; 1.1210 kg/ha) was 2. The “plant injury rating, Lacg” value ([4]; 5.6050 kg/ha) was 2, the “plant injury rating, Bygr” value ([5]; 0.0701 kg/ha) was 0 and the “plant injury rating, Bygr” value ([5]; 0.2803 kg/ha) was 0. The “plant injury rating, Bygr” value ([5]; 1.1210 kg/ha) was 0, the “plant injury rating, Bygr” value ([5]; 5.6050 kg/ha) was 1 and the “plant injury rating, Corn” value ([6]; 0.0701 kg/ha) was 0. For the same compound, the “plant injury rating, Corn” value ([6]; 0.2803 kg/ha) was 0, the “plant injury rating, Corn” value ([6]; 1.1210 kg/ha) was 2 and the “plant injury rating, Corn” value ([6]; 5.6050 kg/ha) was 2. The “plant injury rating, Grso” value ([7]; 0.2803 kg/ha) was 0, the “plant injury rating, Grso” value ([7]; 1.1210 kg/ha) was 0 and the “plant injury rating, Grso” value ([7]; 5.6050 kg/ha) was 1. For the same compound, the “plant injury rating, Whez” value ([8]; 0.0701 kg/ha) was 0, the “plant injury rating, Whez” value ([8]; 0.2803 kg/ha) was 0 and the “plant injury rating, Whez” value ([8]; 1.1210 kg/ha) was 0. For the same compound, the “plant injury rating, Whez” value ([8]; 5.6050 kg/ha) was 0, the “plant injury rating, Rice” value ([9]; 0.0701 kg/ha) was 0 and the “plant injury rating, Rice” value ([9]; 0.2803 kg/ha) was 0. For the same compound, the “plant injury rating, Rice” value ([9]; 1.1210 kg/ha) was 0, the “plant injury rating, Rice” value ([9]; 5.6050 kg/ha) was 0 and the “plant injury rating, Sobe” value ([10]; 0.0701 kg/ha) was 1. For the same compound, the “plant injury rating, Sobe” value ([10]; 0.2803 kg/ha) was 1, the “plant injury rating, Sobe” value ([10]; 1.1210 kg/ha) was 2 and the “plant injury rating, Sobe” value ([10]; 5.6050 kg/ha) was 2. The inhibition at 11200 g/ha [11] was 75 to 100%, the inhibition at 11200 g/ha [12] was 75 to 100% and the inhibition at 11200 g/ha [13] was 50 to 74%. It also gave an inhibition at 11200 g/ha [14] of 75 to 100%, an inhibition at 11200 g/ha [15] of 75 to 100% and an inhibition at 11200 g/ha [16] of 75 to 100%.

For `COC(=O)c1c(OC)nc(C(F)(F)F)c(C(=O)SC)c1C1CCC1` [Compound 137, 3-pyridinecarboxylic acid, 4-cyclobuty1-2-methoxy-5-[(methylthio)carbonyl]-6-(trifluoromethyl)-, methyl ester], the “plant injury rating, Dobr” value ([1]; 0.2803 kg/ha) was 0, the “plant injury rating, Dobr” value ([1]; 1.1210 kg/ha) was 1 and the “plant injury rating, Dobr” value ([1]; 5.6050 kg/ha) was 1. The “plant injury rating, Cobu” value ([2]; 0.2803 kg/ha) was 0, the “plant injury rating, Cobu” value ([2]; 1.1210 kg/ha) was 1 and the “plant injury rating, Cobu” value ([2]; 5.6050 kg/ha) was 3. The “plant injury rating, Grft” value ([3]; 0.2803 kg/ha) was 2, the “plant injury rating, Grft” value ([3]; 1.1210 kg/ha) was 2 and the “plant injury rating, Grft” value ([3]; 5.6050 kg/ha) was 2. The “plant injury rating, Lacg” value ([4]; 0.2803 kg/ha) was 3, the “plant injury rating, Lacg” value ([4]; 1.1210 kg/ha) was 3 and the “plant injury rating, Lacg” value ([4]; 5.6050 kg/ha) was 3. For the same compound, the “plant injury rating, Bygr” value ([5]; 0.2803 kg/ha) was 1, the “plant injury rating, Bygr” value ([5]; 1.1210 kg/ha) was 2 and the “plant injury rating, Bygr” value ([5]; 5.6050 kg/ha) was 2. The “plant injury rating, Corn” value ([6]; 0.2803 kg/ha) was 0, the “plant injury rating, Corn” value ([6]; 1.1210 kg/ha) was 0 and the “plant injury rating, Corn” value ([6]; 5.6050 kg/ha) was 1. For the same compound, the “plant injury rating, Grso” value ([7]; 0.2803 kg/ha) was 0, the “plant injury rating, Grso” value ([7]; 1.1210 kg/ha) was 0 and the “plant injury rating, Grso” value ([7]; 5.6050 kg/ha) was 2. For the same compound, the “plant injury rating, Whez” value ([8]; 0.2803 kg/ha) was 0, the “plant injury rating, Whez” value ([8]; 1.1210 kg/ha) was 0 and the “plant injury rating, Whez” value ([8]; 5.6050 kg/ha) was 0. The “plant injury rating, Rice” value ([9]; 0.2803 kg/ha) was 0, the “plant injury rating, Rice” value ([9]; 1.1210 kg/ha) was 1 and the “plant injury rating, Rice” value ([9]; 5.6050 kg/ha) was 1. For the same compound, the “plant injury rating, Sobe” value ([10]; 0.2803 kg/ha) was 0, the “plant injury rating, Sobe” value ([10]; 1.1210 kg/ha) was 2 and the “plant injury rating, Sobe” value ([10]; 5.6050 kg/ha) was 2. It also gave an inhibition at 11200 g/ha [11] of 75 to 100%, an inhibition at 11200 g/ha [12] of 75 to 100% and an inhibition at 11200 g/ha [13] of 75 to 100%. For the same compound, the inhibition at 11200 g/ha [14] was 75 to 100%, the inhibition at 11200 g/ha [15] was 75 to 100% and the inhibition at 11200 g/ha [16] was 75 to 100%.
